Experimental data published in US8188098B2, “GPR119 receptor agonists” (Hoffmann-La Roche Inc., priority 2008, dated 2012).

Target: T1, GPR119 receptor (Mesocricetus auratus, UniProt A0A1U8CD06)
T1 construct: which endogenously express the GPR119 receptor; host or cells: HIT-T15 hamster pancreatic islet cells
T1 sequence (A0A1U8CD06 1-334): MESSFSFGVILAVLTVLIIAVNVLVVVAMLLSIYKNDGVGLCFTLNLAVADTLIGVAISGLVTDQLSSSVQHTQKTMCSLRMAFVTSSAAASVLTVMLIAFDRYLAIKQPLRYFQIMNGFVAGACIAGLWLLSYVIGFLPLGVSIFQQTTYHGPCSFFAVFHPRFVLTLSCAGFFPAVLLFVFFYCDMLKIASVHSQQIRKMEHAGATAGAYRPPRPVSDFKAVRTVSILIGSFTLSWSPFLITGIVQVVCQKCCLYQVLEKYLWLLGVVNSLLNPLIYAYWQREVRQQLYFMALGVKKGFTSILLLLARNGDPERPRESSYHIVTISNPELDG
Test: cAMP assay in HIT-T15 hamster pancreatic islet cells (functional agonist activity)
Type: cell-based
Conditions: HIT-T15 cells endogenously expressing GPR119; 30 min at 25° C.; intracellular cAMP
Procedure: The functional agonist activities of compounds of the invention were characterized using a cAMP assay in HIT-T15 hamster pancreatic islet cells (American Type Culture Collection, Manassas, Va., USA) which endogenously express the GPR119 receptor. The cells were cultured in Kaighn's modification of Ham's F12 medium (Invitrogen Corporation, Carlsbad, Calif., USA) containing 10% horse serum, 2.5% FBS, and 1% Pen/Strep and grown in 225 cm^2 tissue culture flasks until they reached 75-85% confluence.
The cells were harvested 24 h prior to assay with 5 ml Versene®, washed with Kaighn/F12 medium and then plated into white 384-well plates (9000 cells/well) containing Kaighn/F12 medium. Prior to assay, the culture medium was replaced with a Kaighn/F12 medium without phenol red (50 μL/well) containing 0.5 mM 3-isobutyl-1-methylxanthine, 0.5 mg/ml BSA. The cells were incubated in the dark for 30 min at 25° C. in the absence or presence of varying concentrations of agonist (1 μL, 100% DMSO). The incubation media was discarded and replaced with the assay lysis buffer (50 μL/well) provided in the Tropix cAMP-Screen® kit (Applied Biosystems, Foster City, Calif., USA) and the plates incubated for 45 min at 37° C. The intracellular levels of cAMP generated in the HIT-T 15 cells were measured using the Tropix kit. In brief, 20 μL of the lysate was transferred into pre-coated antibody plates (384-well; Tropix kit) along with 10 μL of alkaline phosphatase conjugate and 20 μL of anti-cAMP antibody and the plates were incubated for 1 h at room temperature while shaking. The plates were then washed 5 times with wash buffer (70 μL) and tapped dry. CSPD®/Sapphire-II™ RTU substrate/enhancer solution (Applied Biosystems, Foster City, Calif., USA; 30 μL) was added and the plates were incubated for 45 min at room temperature while shaking. The signal generated was measured using a Wallac Victor V Luminometer (PerkinElmer Life And Analytical Sciences, Inc., Waltham, Mass., USA; 1 sec/well). EC50 values were calculated using the XLFit program (ID Business Solutions Ltd., Guildford, Surrey, UK).

EC50 [µM] | Compound
0.018 | CS(=O)(=O)c1ccc(Oc2ncnc3c2cnn3C2CCN(C(=O)OCC(Cl)(Cl)Cl)CC2)cc1 [Example 115, 4-[4-(4-Methanesulfonyl-phenoxy)-pyrazolo[3,4-d]pyrimidin-1-yl]-piperidine-1-carboxylic acid 2,2,2-trichloro-ethyl ester]
0.018 | CCOc1ccc(Oc2ncnc3c2cnn3C2CCN(C(=O)OC(C)(C)C)CC2)c(F)c1 [Example 43, 4-[4-(4-Ethoxy-2-fluoro-phenoxy)-pyrazolo[3,4-d]pyrimidin-1-yl]-piperidine-1-carboxylic acid tert-butyl ester]
0.85 | Cc1ncccc1Oc1ncnc2c1cnn2C1CCN(C(=O)OC(C)C)CC1 [Example 27, 4-[4-(2-Methyl-pyridin-3-yloxy)-pyrazolo[3,4-d]pyrimidin-1-yl]-piperidine-1-carboxylic acid isopropyl ester]
0.15 | CC(=O)c1ccc(Oc2ncnc3c2cnn3C2CCN(C(=O)OC(C)(C)C)CC2)cc1 [Example 64, 4-[4-(4-Acetyl-phenoxy)-pyrazolo[3,4-d]pyrimidin-1-yl]-piperidine-1-carboxylic acid tert-butyl ester]
1.6 | CC(C)(C)OC(=O)N1CCC(n2ncc3c(Oc4ccc(-n5cnnn5)cc4)ncnc32)CC1 [Example 83, 4-[4-(4-Tetrazol-1-yl-phenoxy)-pyrazolo[3,4-d]pyrimidin-1-yl]-piperidine-1-carboxylic acid tert-butyl ester]
0.088 | CC(C)(C)OC(=O)N1CCC(n2ncc3c(Oc4cc(F)c(F)cc4F)ncnc32)CC1 [Example 35, 4-[4-(2,4,5-Trifluoro-phenoxy)-pyrazolo[3,4-d]pyrimidin-1-yl]-piperidine-1-carboxylic acid tert-butyl ester]
3.1 | CC(C)OC(=O)N1CCC(n2ncc3c(Nc4cc(F)c(F)cc4F)ncnc32)CC1 [Example 2, 4-[4-(2,4,5-Trifluoro-phenylamino)-pyrazolo[3,4-d]pyrimidin-1-yl]-piperidine-1-carboxylic acid isopropyl ester]
0.14 | Cc1nc(S(C)(=O)=O)ccc1Oc1ncnc2c1cnn2C1CCN(C(=O)OC(C)C)CC1 [Example 29, 4-[4-(6-Methanesulfonyl-2-methyl-pyridin-3-yloxy)-pyrazolo[3,4-d]pyrimidin-1-yl]-piperidine-1-carboxylic acid isopropyl ester]
0.044 | CC(C)(OC(=O)N1CCC(n2ncc3c(Oc4ccc(S(C)(=O)=O)cc4)ncnc32)CC1)C(Cl)(Cl)Cl [Example 114, 4-[4-(4-Methanesulfonyl-phenoxy)-pyrazolo[3,4-d]pyrimidin-1-yl]-piperidine-1-carboxylic acid 2,2,2-trichloro-1,1-dimethyl-ethyl ester]
0.34 | N#Cc1ccccc1Oc1ncnc2c1cnn2C1CCN(C(=O)OC2CCCC2)CC1 [Example 118, 4-[4-(2-Cyano-phenoxy)-pyrazolo[3,4-d]pyrimidin-1-yl]-piperidine-1-carboxylic acid cyclopentyl ester]
1 | CC(OC(=O)N1CCC(n2ncc3c(Oc4ccc(S(C)(=O)=O)cc4)ncnc32)CC1)C(F)(F)F (stereo not drawn) [Example 110, 4-[4-(4-Methanesulfonyl-phenoxy)-pyrazolo[3,4-d]pyrimidin-1-yl]-piperidine-1-carboxylic acid 2,2,2-trifluoro-1-methyl-ethyl ester]
0.92 | Cc1ncccc1Oc1ncnc2c1cnn2C1CCC(c2nc(C(C)C)no2)CC1 (stereo not drawn) [Example 135, 1-[4-(3-Isopropyl-[1,2,4]oxadiazol-5-yl)-cyclohexyl]-4-(2-methyl-pyridin-3-yloxy)-1H-pyrazolo[3,4-d]pyrimidine]
2.1 | CS(=O)(=O)c1ccc(Oc2ncnc3c2cnn3C2CCN(C(=O)c3cc(Cl)cc(Cl)c3)CC2)cc1 [Example 150, (3,5-Dichloro-phenyl)-{4-[4-(4-methanesulfonyl-phenoxy)-pyrazolo[3,4-d]pyrimidin-1-yl]-piperidin-1-yl}-methanone]
2 | CC(C)OC(=O)N1CCC(n2ncc3c(Oc4ccccc4)ncnc32)CC1 [Example 15, 4-(4-Phenoxy-pyrazolo[3,4-d]pyrimidin-1-yl)-piperidine-1-carboxylic acid isopropyl ester]
0.49 | CC(C)(C)OC(=O)N1CCC(n2ncc3c(Oc4ccc(Cl)cc4Cl)ncnc32)CC1 [Example 38, 4-[4-(2,4-Dichloro-phenoxy)-pyrazolo[3,4-d]pyrimidin-1-yl]-piperidine-1-carboxylic acid tert-butyl ester]
0.16 | CC(C)c1noc(N2CCC(n3ncc4c(Oc5ccc(S(C)(=O)=O)c(F)c5)ncnc43)CC2)n1 [Example 128, 4-(3-Fluoro-4-methanesulfonyl-phenoxy)-1-[1-(3-isopropyl-[1,2,4]oxadiazol-5-yl)-piperidin-4-yl]-1H-pyrazolo[3,4-d]pyrimidine]
0.19 | CC(C)(C)OC(=O)N1CCC(n2ncc3c(Oc4ccccc4F)ncnc32)CC1 [Example 32, 4-[4-(2-Fluoro-phenoxy)-pyrazolo[3,4-d]pyrimidin-1-yl]-piperidine-1-carboxylic acid tert-butyl ester]
0.37 | CC(C)(C)OC(=O)N1CCCC(n2ncc3c(Oc4ccc(S(C)(=O)=O)cc4)ncnc32)C1 (racemic) [Example 87, 3-[4-(4-Methanesulfonyl-phenoxy)-pyrazolo[3,4-d]pyrimidin-1-yl]-piperidine-1-carboxylic acid tert-butyl ester]
0.045 | CC(C)(C)OC(=O)N1CCCC(n2ncc3c(Oc4ccc(S(C)(=O)=O)cc4)ncnc32)C1 (single isomer, unassigned) [Example 88]
0.85 | CCCCOC(=O)N1CCC(n2ncc3c(Oc4cccnc4C)ncnc32)CC1 [Example 104, 4-[4-(2-Methyl-pyridin-3-yloxy)-pyrazolo[3,4-d]pyrimidin-1-yl]-piperidine-1-carboxylic acid butyl ester]
1.6 | CC(C)(C)C(=O)N1CCC(n2ncc3c(Oc4cc(F)c(F)cc4F)ncnc32)CC1 [Example 137, 2,2-Dimethyl-1-{4-[4-(2,4,5-trifluoro-phenoxy)-pyrazolo[3,4-d]pyrimidin-1-yl]-piperidin-1-yl}-propan-1-one]
0.14 | CS(=O)(=O)c1ccc(Oc2ncnc3c2cnn3C2CCN(Cc3ccc4c(c3)OC(F)(F)O4)CC2)cc1 [Example 163, 1-[1-(2,2-Difluoro-benzo[1,3]dioxol-5-ylmethyl)-piperidin-4-yl]-4-(4-methanesulfonyl-phenoxy)-1H-pyrazolo[3,4-d]pyrimidine]
0.85 | CC(=O)N1CCN(c2ccc(Oc3ncnc4c3cnn4C3CCN(C(=O)OC(C)(C)C)CC3)cc2)CC1 [Example 67, 4-{4-[4-(4-Acetyl-piperazin-1-yl)-phenoxy]-pyrazolo[3,4-d]pyrimidin-1-yl}-piperidine-1-carboxylic acid tert-butyl ester]
0.57 | CC(C)OC(=O)N1CCC(n2ncc3c(Oc4c(C#N)ccc(F)c4F)ncnc32)CC1 [Example 20, 4-[4-(6-Cyano-2,3-difluoro-phenoxy)-pyrazolo[3,4-d]pyrimidin-1-yl]-piperidine-1-carboxylic acid isopropyl ester]
0.096 | Cc1nc(S(C)(=O)=O)ccc1Oc1ncnc2c1cnn2C1CCN(C(=O)OC(C)(C)C)CC1 [Example 98, 4-[4-(6-Methanesulfonyl-2-methyl-pyridin-3-yloxy)-pyrazolo[3,4-d]pyrimidin-1-yl]-piperidine-1-carboxylic acid tert-butyl ester]
1 | CS(=O)(=O)c1ccc(Oc2ncnc3c2cnn3C2CCN(C(=O)CCc3ccccc3)CC2)cc1 [Example 146, 1-{4-[4-(4-Methanesulfonyl-phenoxy)-pyrazolo[3,4-d]pyrimidin-1-yl]-piperidin-1-yl}-3-phenyl-propan-1-one]
0.42 | C[S+]([O-])c1ccc(Oc2ncnc3c2cnn3C2CCN(C(=O)OC(C)(C)C)CC2)cc1 (stereo not drawn) [Example 58, 4-[4-(4-Methanesulfinyl-phenoxy)-pyrazolo[3,4-d]pyrimidin-1-yl]-piperidine-1-carboxylic acid tert-butyl ester]
